Data published in ChEMBL document CHEMBL4000154, “Pyristriatins A and B: Pyridino-Cyathane Antibiotics from the Basidiomycete Cyathus cf. striatus” (J Nat Prod, 2016).
In brackets after ≈: the same amount, converted by molar mass. Activity calls are given as the source filed them. No cut-off for these calls is given here.

Experiments:
L929 = test: Cytotoxicity against mouse L929 cells after 5 days by MTT assay; assay type: cell-based; details: L929, 120 h
Staphylococcus aureus = test: Antibacterial activity against Staphylococcus aureus DSM 346 after 24 to 48 hrs by serial dilution method; assay type: functional
Wickerhamomyces anomalus = test: Antifungal activity against Pichia anomala DSM 6766 after 24 to 48 hrs by serial dilution method; assay type: functional
Pseudomonas aeruginosa = test: Antibacterial activity against Pseudomonas aeruginosa PA14 after 24 to 48 hrs by serial dilution method; assay type: functional
HUVEC = test: Cytotoxicity against HUVEC after 5 days by MTT assay; assay type: cell-based; details: Homo sapiens, 120 h
Mucor plumbeus = test: Antifungal activity against Mucor plumbeus MUCL 49355 after 24 to 48 hrs by serial dilution method; assay type: functional
[1] = system: Chromobacterium violaceum; test: Antibacterial activity against Chromobacterium violaceum DSM 30191 after 24 to 48 hrs by serial dilution method; assay type: functional
Escherichia coli [2] = details: DSM 498
Description: (§1) Antibacterial activity against Escherichia coli DSM 498 after 24 to 48 hrs by serial dilution method

Candida albicans = test: Antifungal activity against Candida albicans DSM 1665 after 24 to 48 hrs by serial dilution method; assay type: functional
Micrococcus luteus = test: Antibacterial activity against Micrococcus luteus DSM 1790 after 24 to 48 hrs by serial dilution method; assay type: functional
KB 3-1 = test: Cytotoxicity against human KB 3.1 cells after 5 days by MTT assay; assay type: functional, cell-based; details: KB 3-1, 120 h
Rhodotorula glutinis = test: Antifungal activity against Rhodotorula glutinis DSM 10134 after 24 to 48 hrs by serial dilution method; assay type: functional
[3] = system: Schizosaccharomyces pombe; test: Antifungal activity against Schizosaccharomyces pombe DSM 70572 after 24 to 48 hrs by serial dilution method; assay type: functional
Bacillus subtilis = test: Antibacterial activity against Bacillus subtilis DSM 10 after 24 to 48 hrs by serial dilution method; assay type: functional
Escherichia coli [4] = test: microbe, parasite or virus in culture; details: DSM 498
Description: as §1

Compound	IC50 (L929)	MIC (Staphylococcus aureus)	MIC (Wickerhamomyces anomalus)	MIC (Pseudomonas aeruginosa)	IC50 (HUVEC)	MIC (Mucor plumbeus)	MIC [1]	MIC (Escherichia coli [2])	MIC (Candida albicans)	MIC (Micrococcus luteus)	IC50 (KB 3-1)	MIC (Rhodotorula glutinis)	MIC [3]	MIC (Bacillus subtilis)	MIC (Escherichia coli [4])
CO[C@@H]1O[C@H]2c3c(cnc(C(=O)CO)c31)C[C@H](O)[C@@H]1C3=C(C(C)C)CC[C@]3(C)CC[C@@]21C	15.4 µM	8.3 µg/mL (≈ 18.8 µM)	inactive	inactive	6.3 µM	150 µg/mL (≈ 340 µM)	inactive	inactive	inactive	8.3 µg/mL (≈ 18.8 µM)	12.7 µM	8.3 µg/mL (≈ 18.8 µM)	8.3 µg/mL (≈ 18.8 µM)	9.4 µg/mL (≈ 21.3 µM)	–
CN(C)[C@@H]1C(O)=C(C(N)=O)C(=O)[C@@]2(O)C(O)=C3C(=O)c4c(O)cccc4[C@@](C)(O)[C@H]3[C@H](O)[C@@H]12 [OXYTETRACYCLINE]	–	1 µg/mL (≈ 2.17 µM)	–	–	–	–	2.1 µg/mL (≈ 4.56 µM)	–	–	8.3 µg/mL (≈ 18 µM)	–	–	–	–	–
O=C(O)c1cn(C2CC2)c2cc(N3CCNCC3)c(F)cc2c1=O [CIPROFLOXACIN]	–	–	–	–	–	–	–	–	–	–	–	–	–	≤ 2.3 µg/mL	≤ 2.3 µg/mL
C/C(=C\c1csc(C)n1)[C@@H]1C[C@@H]2O[C@@H]2CCC[C@H](C)[C@H](O)[C@@H](C)C(=O)C(C)(C)[C@@H](O)CC(=O)O1 [EPOTHILONE A]	0.0038 µM	–	–	–	–	–	–	–	–	–	–	–	–	–	–
CO[C@H]1O[C@H]2c3c(cnc(C(=O)CO)c31)C[C@H](O)[C@@H]1C3=C(C(C)C)CC[C@]3(C)CC[C@@]21C	16.3 µM	16.7 µg/mL (≈ 37.8 µM)	inactive	inactive	5.9 µM	150 µg/mL (≈ 340 µM)	inactive	inactive	inactive	16.7 µg/mL (≈ 37.8 µM)	14.7 µM	16.7 µg/mL (≈ 37.8 µM)	16.7 µg/mL (≈ 37.8 µM)	9.4 µg/mL (≈ 21.3 µM)	–
C/C(=C\c1csc(C)n1)[C@@H]1C[C@@H]2O[C@]2(C)CCC[C@H](C)[C@H](O)[C@@H](C)C(=O)C(C)(C)[C@@H](O)CC(=O)O1 [PATUPILONE]	–	–	–	–	0.00055 µM	–	–	–	–	–	0.00022 µM	–	–	–	–
NYSTATIN	–	–	16.7 µg/mL	–	–	9.4 µg/mL	–	–	16.7 µg/mL	–	–	66.7 µg/mL	66.7 µg/mL	–	–
